Results: article PMC12916490 (Molecular Psychiatry, 2025)
Where two headings read alike, the source gives them in different places.

What was measured:
C57BL/6 J mice [1] = test: Locomotor activity in mice (dose-response sessions); assay type: in vivo, mouse; conditions: 30-min session, mean ± SEM
Experimental: (§1) Behavioral studies were conducted as previously described with minor modifications. Male C57BL/6 J mice (The Jackson Laboratory #000664, 24 mice/drug) were purchased at 8 weeks old, group housed for acclimation (3–5 per cage for 1–2 weeks) under a 12:12 light:dark cycle (07:00 local time = lights on), with ad libitum access to food and water at the NIDA IRP facilities in Baltimore, MD, USA. All experiments were approved by the NIDA IRP Animal Care and Use Committee. After acclimation to the vivarium facilities, each mouse was briefly anesthetized with isoflurane and a temperature transponder (14 × 2 mm, model IPTT-300, Bio Medic Data Systems, Inc., Seaford, DE, USA) was implanted subcutaneously (s.c.) on the back, posterior to the shoulder blades. After the implant, mice were single housed and allowed one week recovery prior to the start of experiments. […] Drugs were randomly assigned and administered s.c. as the weight of the form used at an injection volume of 0.01 mL/g body weight.
(§2) During experimental testing, mice were tested once every 1–2 weeks to avoid potential tolerance to behavioral effects of the test drugs and were tested 2–3 times in total per drug. Each test session began with a brief 5 min acclimation period to the testing arenas, followed by recording baseline body temperature using a handheld wand that was sensitive to the signals emitted from the s.c. transponder. After this, mice were injected s.c. with appropriate doses of test drug and returned to the chambers for a 30-min test session. During the dose-response sessions, locomotor activity was continuously recorded using open field chambers with photobeam arrays (Coulbourn Instruments, Holliston, MA, USA) that were modified with cylindrical inserts and custom floor panels that also allowed video recordings of each mouse to later quantify HTR activity (GoPro Hero 7 camera; 960p resolution at 120 frames per second). Videos for each mouse were analyzed post session using commercially available software used to quantify HTR as previously described.
(§3) Data analysis was performed with Prism software (version 10.1.2, GraphPad Software, Boston, MA, USA). The IC50 values from the radioligand binding assays were determined by nonlinear regression, using three independent concentration-response curves fitted to a one-site model. The Cheng-Prusoff equation was used to calculate Kᵢ values for the competing ligands. EC50 values were determined by applying nonlinear regression to concentration-response curves. Bias factors (β) were calculated based on the relative intrinsic activity approach. More detailed information can be found in the Supplementary information. Mean values for total number of HTR, change in body temperature from pre to post session (Δ°C), and total distance traveled (cm) for each drug dose were compared (p < 0.05) via Welch’s ANOVA with Dunnett’s T3 post test, comparing all doses to respective vehicle controls (0 mg/kg). Welch’s ANOVA with Dunnett’s T3 post test was also used to compare drug concentrations, but the data were compared to DOM in this case. Dose–response relationships for HTR and locomotor activities were plotted using bell-shaped curve fits, while temperature change data were plotted using four-parameter non-linear regression curve fits. The ascending phase of the HTR curve for each drug was used to determine ED50 potency values from four parameter non-linear regression fits. For combined DOM and DOAM administration, the plasma, brain tissue, and brain dialysate drug concentrations were compared using paired t-tests (p < 0.05). Ratios were compared using Holm-Sidak’s post hoc test following a repeated-measures one-way ANOVA (F (1.709, 6.835) = 70.80; p < 0.0001).
(§4) Locomotor activity and body temperature were also assessed to monitor other pharmacological effects of the drugs that may impact the HTR. […]

C57BL/6 J mice [2] = test: HTR after single fixed doses prior to brain and blood collection (20 min); assay type: in vivo, mouse; conditions: single s.c. dose: DOM 3, DOPR 1, DOBU 3, DOAM 10, 2,5-DMA 10 mg/kg
Experimental: In these experiments, HTR activity was monitored for 20 min, followed by cardiac puncture and decapitation. Whole blood (~ 300–500 µL per sample) was collected via cardiac puncture, placed in tubes containing 10 µL of heparin (1000 IU/mL), and immediately stored on ice until centrifugation. Blood samples were spun at 3300 rpm at 4 °C and plasma was decanted into vials on dry ice until storage at -80 °C. Whole brains were collected immediately after cardiac puncture. Brains were frozen on dry ice, weighed, then placed into 7-mL homogenizing tubes with ceramic beads, and stored at -80 °C.
as §3, with “For combined DOM and DOAM administration, the plasma, brain tissue, and brain dialysate drug concentrations were compared using paired t-tests (p < 0.05). Ratios were compared using Holm-Sidak’s post hoc test following a repeated-measures one-way ANOVA (F (1.709, 6.835) = 70.80; p < 0.0001).” left out

C57BL/6 J mice [3] = test: Body temperature change in mice (dose-response sessions); assay type: in vivo, mouse; conditions: pre to post 30-min session, mean ± SEM
Experimental: as §1, §2, §3, §4

[4] = In vivo microdialysis (striatum) with plasma and brain levels after co-administration of DOM and DOAM; design: species or system mouse; conditions: 0.5 mg/kg s.c. each; for Dialysate concentration (striatal microdialysis) after co-administration of DOM and DOAM: dialysate collected 30 min post injection, detection limit 0.04 ng/mL; for concentration at 30 min: both sexes, C57BL/6JRj, mouse, subcutaneous, 30 min post injection, mice
Experimental: Microdialysis experiments were conducted as previously reported with minor modifications; involved procedures were approved by the Cantonal Veterinary Office Basel-Stadt, in accordance with Swiss law. Three male and two female C57BL/6JRj mice (Janvier Labs, France) aged 11–14 weeks were used. During stereotactic surgeries, a guide cannula (CMA7; CMA Microdialysis AB, Sweden) directed to the striatum was implanted at 0.6 AP, 1.8 ML and -1.5 DV from bregma and fixed with dental cement. On the day of microdialysis, a microdialysis probe (CMA7, 3-mm probe length) was inserted into the guide cannula and perfused with artificial cerebrospinal fluid (119 mM NaCl, 11 mM D-glucose, 26.2 mM NaHCO3, 2.5 mM KCl, 1.3 mM MgCl2, 1 mM NaH2PO4, and 2.5 mM CaCl2) at 1 µL/min. The dialysate was collected for 30 min before s.c. injection of a mixture of DOM and DOAM (dissolved in DMSO/Tween80/saline; 1:1:18) yielding a dose of 0.5 mg/kg body weight for each substance. The dialysate post injection was collected for 30 min followed by decapitation under isoflurane anesthesia. Plasma obtained from trunk blood and homogenates of the forebrains (0.5 g brain tissue per 1 mL ice-cold water) were prepared for LC–MS/MS analysis. One hemisphere of the brain from each mouse was fixed in 4% paraformaldehyde, sectioned, and stained with Hoechst dye (2 µg/mL for 30 min) to confirm the placement of the microdialysis probe in the striatum. After running microdialysis in one or two mice, the recoveries of the microdialysis probes were assessed by collecting dialysate for 15 min at 1 µL/min with the probe immersed in a mixture of DOM and DOAM (1 µg/mL each; in artificial cerebrospinal fluid).
as §3

mice = test system: mice; design: method as in ref 20 (Halberstadt et al. 2020); conditions: ref 20 (Halberstadt et al. 2020), cited from earlier work; for HTR in mice ED50 (95% CI): i.p.
[5] = brain (forebrain homogenate), read-out: Brain tissue level after co-administration of DOM and DOAM
[6] = plasma, read-out: Plasma level after co-administration of DOM and DOAM

Row | SMILES | Locomotor activity (distance traveled) (C57BL/6 J mice [1]; 0.03 mg/kg s.c.) | Locomotor activity (distance traveled) (C57BL/6 J mice [1]; 0.1 mg/kg s.c.) | Locomotor activity (distance traveled) (C57BL/6 J mice [1]; 0.3 mg/kg s.c.) | Locomotor activity (distance traveled) (C57BL/6 J mice [1]; 1 mg/kg s.c.) | Locomotor activity (distance traveled) (C57BL/6 J mice [1]; 3 mg/kg s.c.) | Locomotor activity (distance traveled) (C57BL/6 J mice [1]; 10 mg/kg s.c.) | Locomotor activity (distance traveled) (C57BL/6 J mice [1]; 30 mg/kg s.c.) | HTR (C57BL/6 J mice [2]) [count/20 min] | ΔTemperature (C57BL/6 J mice [3]; 0.03 mg/kg s.c.) [°C] | ΔTemperature (C57BL/6 J mice [3]; 0.1 mg/kg s.c.) [°C] | ΔTemperature (C57BL/6 J mice [3]; 0.3 mg/kg s.c.) [°C] | ΔTemperature (C57BL/6 J mice [3]; 1 mg/kg s.c.) [°C] | ΔTemperature (C57BL/6 J mice [3]; 3 mg/kg s.c.) [°C] | ΔTemperature (C57BL/6 J mice [3]; 10 mg/kg s.c.) [°C] | ΔTemperature (C57BL/6 J mice [3]; 30 mg/kg s.c.) [°C] | Dialysate concentration (striatal microdialysis) after co-administration of DOM and DOAM [4] [ng/mL] | concentration at 30 min [4, 5] [ng/g] | concentration at 30 min [4, 6] [ng/mL] | HTR in mice ED50 (95% CI) (mice) | also measured
1 | COc1ccc(OC)c(CC(C)N)c1.Cl (stereo not shown) [2,5-DMA, 2,5-Dimethoxyamphetamine hydrochloride] | 2,854 ± 266 cm | 2,763 ± 284 cm | 2,584 ± 157 cm | 2,630 ± 184 cm | 2,780 ± 415 cm | 1,801 ± 171 cm | 1,169 ± 214 cm | 19 | 0.4 ± 0.1 | 0.3 ± 0.1 | 0.5 ± 0.1 | 0.2 ± 0.1 | 0.2 ± 0.2 | -0.9 ± 0.2 | -4.0 ± 0.5 | – | – | – | – | –
2 | CCCc1cc(OC)c(CC(C)N)cc1OC.Cl (stereo not shown) [DOPR, 4-propyl-2,5-dimethoxyamphetamine hydrochloride] | 2,493 ± 199 cm | 2,791 ± 131 cm | 3,680 ± 100 cm | 3,500 ± 278 cm | 1,648 ± 262 cm | 665 ± 82 cm | – | – | 0.1 ± 0.1 | 0.1 ± 0.2 | 0.0 ± 0.2 | -0.1 ± 0.1 | -3.0 ± 0.6 | -4.9 ± 0.5 | – | – | – | – | – | Locomotor activity (distance traveled) (C57BL/6 J mice [1]; 0.01 mg/kg s.c.): 2,728 ± 251 cm; ΔTemperature (C57BL/6 J mice [3]; 0.01 mg/kg s.c.): 0.3 ± 0.2 °C
3 | COc1cc(CC(C)N)c(OC)cc1C (stereo not shown) [DOM, 4-methyl-2,5-dimethoxyamphetamine] | 2,696 ± 154 cm | 2,522 ± 203 cm | 3,051 ± 367 cm | 4,272 ± 215 cm | 3,556 ± 278 cm | 2,186 ± 443 cm | 606 ± 47 cm | – | -0.1 ± 0.1 | 0.0 ± 0.1 | -0.1 ± 0.1 | 0.1 ± 0.1 | -0.2 ± 0.1 | -2.2 ± 0.8 | -6.5 ± 0.2 | 0.82 | 463 | 26 | – | –
4 | CCCCc1cc(OC)c(CC(C)N)cc1OC (stereo not shown) [DOBU, 4-butyl-2,5-dimethoxyamphetamine] | 2,386 ± 181 cm | 2,342 ± 184 cm | 2,535 ± 61 cm | 3,030 ± 217 cm | 3,348 ± 297 cm | 1,167 ± 195 cm | 793 ± 154 cm | 37 | -0.1 ± 0.1 | -0.1 ± 0.2 | 0.1 ± 0.1 | -0.4 ± 0.1 | -0.3 ± 0.2 | -1.7 ± 0.6 | -5.5 ± 0.4 | – | – | – | 1.17 mg/kg | –
5 | CCc1cc(OC)c(CC(C)N)cc1OC (stereo not shown) [DOET, 4-ethyl-2,5-dimethoxyamphetamine] | – | – | – | – | – | – | – | – | – | – | – | – | – | – | – | – | – | – | 0.20 (0.11–0.36) mg/kg | HTR in mice Emax (mice): 122 total HTR count
6 | CCCCCc1cc(OC)c(CC(C)N)cc1OC (stereo not shown) [DOAM, 4-amyl-2,5-dimethoxyamphetamine] | 2,867 ± 167 cm | 2,677 ± 103 cm | 2,307 ± 244 cm | 2,421 ± 129 cm | 2,884 ± 249 cm | 3,433 ± 325 cm | 1,724 ± 138 cm | 30 | 0.0 ± 0.1 | 0.0 ± 0.1 | -0.3 ± 0.2 | -0.1 ± 0.2 | -0.2 ± 0.1 | -0.2 ± 0.2 | -3.9 ± 0.4 | < 0.04 | 276 | 12 | – | –
